According to US20260008862A1, “Bispecific Anti-BCMA x Anti-CD3 Antibodies and Uses Thereof” (Regeneron Pharmaceuticals, Inc., priority 2018, published 2026):
Entries after “also recorded” stand apart in the source; their conditions may differ.

Columns and labels:
[1] = target: T1, cynomolgus CD3 (mfCD3 engineered Jurkat cell line) (Macaca fascicularis, UniProt Q95LI5+Q95LI8); experiment: FACS binding to mfCD3 engineered Jurkat cells; details: median EC50, FACS binding
T1 construct: expressed in transfected cells; host or cells: Jurkat cells, CRISPR/Cas9-engineered (mfCD3 engineered Jurkat cell line)
T1 sequence (Q95LI5 22-198, change not shown): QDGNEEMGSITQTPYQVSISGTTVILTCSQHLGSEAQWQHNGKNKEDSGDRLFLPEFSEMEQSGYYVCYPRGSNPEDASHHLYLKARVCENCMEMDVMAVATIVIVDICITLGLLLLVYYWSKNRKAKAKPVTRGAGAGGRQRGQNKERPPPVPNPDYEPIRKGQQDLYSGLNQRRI
T1 sequence (Q95LI8 22-171, change not shown): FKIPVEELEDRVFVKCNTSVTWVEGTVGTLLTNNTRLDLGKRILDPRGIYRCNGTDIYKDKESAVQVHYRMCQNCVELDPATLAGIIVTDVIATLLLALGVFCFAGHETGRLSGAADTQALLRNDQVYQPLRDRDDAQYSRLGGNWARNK
T1 sequence (P09693 23-182 partner): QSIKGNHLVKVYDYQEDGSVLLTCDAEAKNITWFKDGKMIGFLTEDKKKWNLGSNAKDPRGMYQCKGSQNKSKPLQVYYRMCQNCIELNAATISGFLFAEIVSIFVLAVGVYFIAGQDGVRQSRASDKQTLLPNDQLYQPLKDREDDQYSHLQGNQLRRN
T1 sequence (P20963 22-164 partner): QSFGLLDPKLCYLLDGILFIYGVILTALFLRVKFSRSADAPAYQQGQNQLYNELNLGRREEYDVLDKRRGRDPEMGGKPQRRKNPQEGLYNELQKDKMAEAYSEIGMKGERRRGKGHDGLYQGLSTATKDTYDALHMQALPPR
Method: Flow cytometric analysis was utilized to determine binding of BCMA×CD3 bispecific antibodies to human and cynomolgus CD3 (Jurkat cells, mfCD3 engineered Jurkat cells, primary human CD8+ and cynomolgus CD8+ T cells). Briefly, 1e05 cells/well were incubated in the presence of FACS wash with block (PBS+1% filtered FBS+5% mouse serum) with a serial dilution of BCMA×CD3 and control antibodies for 30 minutes on ice. After incubation, the cells were washed twice with cold FACS wash (PBS+1% filtered FBS) and bound antibody was detected by incubating with Alexa647-conjugated anti-human secondary antibody on ice for an additional 30 minutes. Wells containing no antibody or secondary only were used as a control. For the detection of monkey and human T cells, a cocktail of human and cynomolgus cross-reactive antibodies to CD4, CD8 and CD16 was added to the anti-human secondary. After incubation, cells were washed, re-suspended in 200 μL cold PBS containing 1% filtered FBS and analyzed by flow cytometry on a BD FACS Canto II. Cells were gated by FSC-H by FSC-A to select singlet events, followed by side and forward scatters to select for live events. For monkey T cells, additional gating on CD8+/CD16− cells was performed.
EC50 values for FACS binding were calculated using 4-parameter non-linear regression analysis in Prism software. […]

[2] = tested on: Jurkat/NFATLuc.3C7 cells + MM1-S cells; experiment: Jurkat/NFATLuc reporter bioassay with MM1-S cells; format: cell-based; details: highest RLU / lowest RLU
Method: (§1) Activity of the anti-BCMA×anti-CD3 bispecific antibodies were assessed in a Jurkat/NFATLuc reporter bioassay utilizing several cell lines with varying levels of BCMA surface expression. The Jurkat cells were engineered to express an NFAT-luciferase reporter (Jurkat/NFATLuc.3C7), and 50,000 Jurkat reporter cells were combined with 50,000 BCMA positive (Daudi, MM1-S, NCI-H929, OPM-2, RPMI-8226, MOLP-8, or Raji) or BCMA negative (HEK293) cells in Thermo Nunclon delta 96 well white microwell plates (Thermo Scientific, Cat #136102) in 50 ul of assay media (RPMI media with 10% FBS and 1% P/S/G). Three-fold serial dilutions of the BCMA×CD3 bispecific antibodies (mAb25441 D or mAb25442D), or a bivalent anti-BCMA antibody (mAb21581) were immediately added in 50 μL of assay buffer. The plates were gently agitated and incubated in a 37° C., 5% CO2 incubator for 4-6 hours. NFAT-Luciferase activity was determined using Promega One-Glo (Cat #E6130) and a Perkin Elmer Envision plate reader. RLU were plotted in GraphPad Prism using a four-parameter logistic equation over a 12-point response curve to calculate EC50 values. […] The signal to noise (S:N) is determined by taking the ratio of the highest RLU on the curve to the lowest.

[3] = tested on: Jurkat/NFATLuc.3C7 cells + Raji cells; experiment: Jurkat/NFATLuc reporter bioassay with Raji cells; format: cell-based; details: highest RLU / lowest RLU
Method: as §1

[4] = tested on: BCMA-expressing NCI-H929 tumors; experiment: NCI-H929 + PBMC xenogenic tumor model, immediate treatment, dose response (Example 11); format: in vivo, mouse
Method: To determine the in vivo efficacy of anti-BCMA×anti-CD3 bispecific antibodies (Abs), a xenogenic tumor study was performed. Immunodeficient NOD.Cg-Prkdc^scidIl2rg^tm1Wji/SzJ (NSG) mice were subcutaneously implanted with a mixture of 10×10^6 BCMA-expressing NCI-H929 human multiple myeloma tumor cells and 0.5×10^6 human peripheral blood mononuclear cells (PBMC) isolated from a normal, healthy donor. […] The mice were administered these Abs twice per week for a total of seven doses, and tumor growth was assessed over 60 days. While BCMA^+ NCI-H929 tumors grew similarly in the vehicle- and CD3-binding control-treated mice, both anti-BCMA×anti-CD3 Abs that were tested prevented the growth of tumors in a dose-dependent manner in vivo.
Implantation and measurement of xenogenic tumors: NSG mice were subcutaneously implanted with a mixture of 10×10^6 BCMA-expressing NCI-H929 multiple myeloma cells and 0.5×10^6 PBMC derived from a normal, healthy donor. […] The mice were administered Abs twice per week for a total of seven doses. Tumor growth was measured with calipers twice per week for the duration of the experiment.
Calculation of xenogenic tumor growth and inhibition: In order to determine tumor volume by external caliper, the greatest longitudinal diameter (length in mm) and the greatest transverse diameter (width in mm) were determined. Tumor volumes based on caliper measurements were calculated by the formula: Volume (mm^3)=(length×width^2)/2.

## REGN5458: anti-BCMA×anti-CD3 bispecific antibody: BCMA HCVR of mAb21581 (SEQ 66), CD3 HCVR of mAb7221G (SEQ 90), common LCVR SEQ 82
[1]
  EC50: 15.1 nM
[2]
  S:N: 165
[3]
  S:N: 123
[4]; 0.04 mg/kg
  Average Tumor Size (mm3) ± SEM on Day 7: 30.8 ± 5.5 mm3
  Average Tumor Size (mm3) ± SEM on Day 12: 71.5 ± 22.4 mm3
  Average Tumor Size (mm3) ± SEM on Day 15: 133.4 ± 50.9 mm3
  Average Tumor Size (mm3) ± SEM on Day 19: 413.7 ± 162.7 mm3
  Average Tumor Size (mm3) ± SEM on Day 22: 669.4 ± 248.5 mm3
  Average Tumor Size (mm3) ± SEM on Day 26: 1167.0 ± 431.7 mm3
  Average Tumor Size (mm3) ± SEM on Day 29: 1781.8 ± 620.7 mm3
[4]; 0.4 mg/kg
  Average Tumor Size (mm3) ± SEM on Day 4: 31.9 ± 2.0 mm3
  Average Tumor Size (mm3) ± SEM on Day 7: 11.3 ± 3.0 mm3
  Average Tumor Size (mm3) ± SEM on Day 15: 0 ± 0 mm3
  Average Tumor Size (mm3) ± SEM on Day 19: 0 ± 0 mm3
  Average Tumor Size (mm3) ± SEM on Day 22: 0 ± 0 mm3
  Average Tumor Size (mm3) ± SEM on Day 26: 0 ± 0 mm3
  Average Tumor Size (mm3) ± SEM on Day 29: 0 ± 0 mm3
  Average Tumor Size (mm3) ± SEM on Day 34: 0 ± 0 mm3
  Average Tumor Size (mm3) ± SEM on Day 39: 0 ± 0 mm3
  Average Tumor Size (mm3) ± SEM on Day 42: 0 ± 0 mm3
  Average Tumor Size (mm3) ± SEM on Day 46: 0 ± 0 mm3
  Average Tumor Size (mm3) ± SEM on Day 55: 0 ± 0 mm3
  Average Tumor Size (mm3) ± SEM on Day 60: 0 ± 0 mm3
[4]; 4 mg/kg
  Average Tumor Size (mm3) ± SEM on Day 4: 18.0 ± 1.2 mm3
  Average Tumor Size (mm3) ± SEM on Day 12: 0 ± 0 mm3
  Average Tumor Size (mm3) ± SEM on Day 15: 0 ± 0 mm3
  Average Tumor Size (mm3) ± SEM on Day 19: 0 ± 0 mm3
  Average Tumor Size (mm3) ± SEM on Day 22: 0 ± 0 mm3
  Average Tumor Size (mm3) ± SEM on Day 26: 0 ± 0 mm3
  Average Tumor Size (mm3) ± SEM on Day 29: 0 ± 0 mm3
  Average Tumor Size (mm3) ± SEM on Day 34: 0 ± 0 mm3
  Average Tumor Size (mm3) ± SEM on Day 39: 0 ± 0 mm3
  Average Tumor Size (mm3) ± SEM on Day 42: 0 ± 0 mm3
  Average Tumor Size (mm3) ± SEM on Day 46: 0 ± 0 mm3
  Average Tumor Size (mm3) ± SEM on Day 55: 0 ± 0 mm3
  Average Tumor Size (mm3) ± SEM on Day 60: 0 ± 0 mm3

## REGN5459: anti-BCMA×anti-CD3 bispecific antibody: BCMA HCVR of mAb21581 (SEQ 66), CD3 HCVR of mAb7221G20 (SEQ 98), common LCVR SEQ 82
[1]
  Jurkat-mfCD3 EC50 [M]: did not bind; also recorded: No Binding
[2]
  S:N: 120
[3]
  S:N: 78
[4]; 0.04 mg/kg
  Average Tumor Size (mm3) ± SEM on Day 4: 33.0 ± 4.4 mm3
  Average Tumor Size (mm3) ± SEM on Day 7: 8.4 ± 4.0 mm3
  Average Tumor Size (mm3) ± SEM on Day 12: 0 ± 0 mm3
  Average Tumor Size (mm3) ± SEM on Day 19: 23.1 ± 23.1 mm3
  Average Tumor Size (mm3) ± SEM on Day 22: 69.5 ± 69.5 mm3
  Average Tumor Size (mm3) ± SEM on Day 26: 156.7 ± 156.7 mm3
  Average Tumor Size (mm3) ± SEM on Day 29: 226.6 ± 226.6 mm3
[4]; 0.4 mg/kg
  Average Tumor Size (mm3) ± SEM on Day 4: 19.6 ± 4.4 mm3
  Average Tumor Size (mm3) ± SEM on Day 12: 0 ± 0 mm3
  Average Tumor Size (mm3) ± SEM on Day 15: 0 ± 0 mm3
  Average Tumor Size (mm3) ± SEM on Day 19: 0 ± 0 mm3
  Average Tumor Size (mm3) ± SEM on Day 22: 0 ± 0 mm3
  Average Tumor Size (mm3) ± SEM on Day 26: 0 ± 0 mm3
  Average Tumor Size (mm3) ± SEM on Day 29: 0 ± 0 mm3
  Average Tumor Size (mm3) ± SEM on Day 34: 0 ± 0 mm3
  Average Tumor Size (mm3) ± SEM on Day 39: 0 ± 0 mm3
  Average Tumor Size (mm3) ± SEM on Day 42: 0 ± 0 mm3
  Average Tumor Size (mm3) ± SEM on Day 46: 0 ± 0 mm3
  Average Tumor Size (mm3) ± SEM on Day 55: 0 ± 0 mm3
  Average Tumor Size (mm3) ± SEM on Day 60: 0 ± 0 mm3
[4]; 4 mg/kg
  Average Tumor Size (mm3) ± SEM on Day 4: 21.8 ± 3.4 mm3
  Average Tumor Size (mm3) ± SEM on Day 7: 8.0 ± 4.3 mm3
  Average Tumor Size (mm3) ± SEM on Day 12: 1.7 ± 1.7 mm3
  Average Tumor Size (mm3) ± SEM on Day 15: 0 ± 0 mm3
  Average Tumor Size (mm3) ± SEM on Day 19: 0 ± 0 mm3
  Average Tumor Size (mm3) ± SEM on Day 22: 0 ± 0 mm3
  Average Tumor Size (mm3) ± SEM on Day 26: 0 ± 0 mm3
  Average Tumor Size (mm3) ± SEM on Day 29: 0 ± 0 mm3
  Average Tumor Size (mm3) ± SEM on Day 34: 0 ± 0 mm3
  Average Tumor Size (mm3) ± SEM on Day 39: 0 ± 0 mm3
  Average Tumor Size (mm3) ± SEM on Day 42: 0 ± 0 mm3
  Average Tumor Size (mm3) ± SEM on Day 46: 0 ± 0 mm3
  Average Tumor Size (mm3) ± SEM on Day 55: 0 ± 0 mm3
  Average Tumor Size (mm3) ± SEM on Day 60: 0 ± 0 mm3
